# Test results as given in patent US20210260090A1, “USE OF SGLT-2 INHIBITORS FOR THE PREVENTION AND/OR TREAT-MENT OF CARDIAC DISEASES IN FELINES” (Boehringer Ingelheim Vetmedica GmbH, priority 2020, published 2021).
# Assays:
# [1] = test system: cats with hypertrophic cardiomyopathy (HCM) and recent heart failure; assay: Exploratory clinical field study of velagliflozin in cats (Example 2, case 101); type: in vivo; conditions: for NT-proBNP: cardiac biomarker, screening (D −7) 177; for NT-proBNP / Grade of murmur / Resting respiratory rate / Heart rate / Point of maximum intensity / Presence of arrythmia / Presence of gallop sound / Timing of murmur / Presence of murmur / LA/Ao (left atrium to aorta ratio) / LAD max (mm) (Left atrium measured as right parasternal long-axis): cat 101, 1 mg/kg orally once per day; for BPM (mmHG): cat 101, 1 mg/kg bodyweight orally once per day, screening (D −7) 128; for Grade of murmur: screening (D −7) 4; for Resting respiratory rate: screening (D −7) 28; for Heart rate: screening (D −7) 140; for Point of maximum intensity: screening (D −7) left apical; for Presence of arrythmia / Presence of gallop sound: screening (D −7) no; for Timing of murmur: screening (D −7) systolic; for Presence of murmur: screening (D −7) yes; for LA/Ao (left atrium to aorta ratio) / LAD max (mm) (Left atrium measured as right parasternal long-axis): echocardiography; for LA/Ao (left atrium to aorta ratio): screening (D −7) 1.63; for LAD max (mm) (Left atrium measured as right parasternal long-axis): screening (D −7) 16.3
# From the text: In an exploratory clinical field study (prospective, baseline controlled, open label and multi-site) under real world conditions, four cats were screened for eligibility for compassionate use of velagliflozin to treat cardiomyopathies and heart failure in cats. […] Due to non-compliance to treatment regime of one pet owner only one cat remained in the study over the complete planned time period of 90 days. Clinical symptoms (evaluated in a physical examination according to Good Veterinary Practice), echocardiographic parameters (always done by the same person at each visit and according to the ACVIM consensus statement guidelines for the classification, diagnosis, and management of cardiomyopathies in cats), blood parameters (evaluated by IDEXX Bioresearch Laboratories, Germany), number of events (re-occurrence of heart failure, cardiac related death or euthanasia) and time to event in days were documented at each visit on the respective Case Report Form.
# Case 101 was a 10 years old, female spayed Maine Coon cat, diagnosed with hypertrophic cardiomyopathy (HCM) and previous congestive heart failure.
# LA (Left atrium dimension measured as right parasternal short-axis); Ao (Aortic root diameter); LA/Ao, left atrium to aorta ratio; IVSd (interventricular septal end diastolic dimension, i.e. the thickness of the interventricular septum); LAD (Left atrium measured as right parasternal long-axis)
# [2] = Plasma NEFA, cholesterol and BHB in cats before and after four week treatment (FIG. 1); type: in vivo, cat; conditions: end of four week treatment period (post) vs pre, versus control
# From the text: A significant treatment effect, an increase in blood lipids (NEFA, cholesterol) and plasma concentrations of BHB is noted.
# [3] = test system: cat patients with every possible phenotype of cardiomyopathy (HCM, RCM, UCM, DCM and ARVC); assay: Clinical field study in client-owned cat patients with cardiomyopathy (Example 1); type: in vivo; conditions: 1 mg/kg bodyweight orally once daily
# Experimental: Client-owned cat patients (older than 1 year) with every possible phenotype of cardiomyopathy (HCM, RCM, UCM, DCM and ARVC) with or without clinical symptoms (e.g. congestive heart failure) are treated orally and once daily with a velagliflozin dosage of 1 mg/kg bodyweight.
# During the study period the body weight, body condition score, blood pressure and the cardiovascular system (including heart rates, rhythm, presence of gallop sound or murmur and intensity) are examined on a regular basis during the visits at the site by the investigator. Additionally, thoracic radiographs (in the right lateral and dorso ventral view), echocardiography (including LV septal & free wall thickness, LVIDD, LVIDS (FS %), LA/Ao, LAD, ejection fraction) and electrocardiography are performed. In order to obtain an overview as complete as possible regular blood tests include a complete hematology (white blood cells (WBC), WBC differential, red blood cells, hemoglobin, hematocrit, Heinz bodies, platelet count), a biochemistry panel (total protein, Albumin, Globulin, Alkaline phosphatase (ALP), Alanine transaminase (ALT), Aspartate transaminase (AST), Total bilirubin, Creatinine, Blood urea nitrogen or urea (BUN), Calcium, Sodium, Potassium, Chloride, Phosphorus, Glucose, Cholesterol, Triglycerides, Fructosamine), the measurement of total T4, ketone bodies and cardiac biomarkers (Plasma NT-pro BNP, Cardiac troponin I, ST2).
# Variables of interest are the number of events defined as cardiac death, cardiac related euthanasia and (re-) occurrence of congestive heart failure and the time to event (survival time of the cat patients).
# [4] = cat 101, treatment period Day 1 until Day 90, 1 mg/kg orally once per day
# [5] = compared to placebo on top of standard of care
structure (smiles),measurement,setting,value
"N#Cc1ccc([C@@H]2O[C@H](CO)[C@@H](O)[C@H](O)[C@H]2O)cc1Cc1ccc(C2CC2)cc1 [velagliflozin, Velagliflozin]",NT-proBNP,[1]; Visit 2 (D 45),104 pmol/L
same,NT-proBNP,[1]; Visit 3 (D 90),39 pmol/L
same,BPM (mmHG),[1]; Visit 2 (D 45),136 mmHG
same,BPM (mmHG),[1]; Visit 3 (D 90),124 mmHG
same,Grade of murmur,[1]; Visit 2 (D 45),3
same,Resting respiratory rate,[1]; Visit 2 (D 45),34
same,Heart rate,[1]; Visit 2 (D 45),180
same,Point of maximum intensity,[1]; Visit 2 (D 45),left apical
same,Presence of arrythmia,[1]; Visit 2 (D 45),no
same,Presence of gallop sound,[1]; Visit 2 (D 45),no
same,Timing of murmur,[1]; Visit 2 (D 45),systolic
same,Presence of murmur,[1]; Visit 2 (D 45),yes
same,Grade of murmur,[1]; Visit 3 (D 90),2
same,Resting respiratory rate,[1]; Visit 3 (D 90),34
same,Heart rate,[1]; Visit 3 (D 90),176
same,Point of maximum intensity,[1]; Visit 3 (D 90),left apical
same,Presence of arrythmia,[1]; Visit 3 (D 90),no
same,Presence of gallop sound,[1]; Visit 3 (D 90),no
same,Timing of murmur,[1]; Visit 3 (D 90),systolic
same,Presence of murmur,[1]; Visit 3 (D 90),yes
same,"echocardiographic parameters (Table 2), cardiac biomarker (Table 3) and abnormal heart murmur over the treatment period","[1]; cat 101, D −7 to D 90",improved continuously
same,general health at study termination,"[1]; cat 101, end of 90 day study",good general health
same,adverse event,[1]; [4],no adverse event
same,re-occurrence of heart failure or pulmonary oedema,[1]; [4],no heart failure or pulmonary oedema re-occurred
same,LA/Ao (left atrium to aorta ratio),[1]; Visit 2 (D 45),1.36
same,LAD max (mm) (Left atrium measured as right parasternal long-axis),[1]; Visit 2 (D 45),13.8 mm
same,LA/Ao (left atrium to aorta ratio),[1]; Visit 3 (D 90),1.07
same,LAD max (mm) (Left atrium measured as right parasternal long-axis),[1]; Visit 3 (D 90),12.6 mm
same,plasma cholesterol,[2],increase
same,plasma concentrations of beta-hydroxybutyrat (BHB),[2],increase
same,plasma non-esterified fatty acids (NEFA),[2],increase
same,"clinical parameters (e.g. appetite, activity level and breathing)",[3]; compared to placebo on top of SoC,improve significantly
same,survival time,[3]; [5],significant and clinically relevant prolongation
same,time to event (cardiac death/euthanasia and (re-)occurrence of congestive heart failure),[3]; [5],significant and clinically relevant prolongation
